From publication PMC11286508, “Repurposing pexmetinib as an inhibitor of TKI-resistant BCR::ABL1” (Leukemia, 2024)

Legend:
[1] = system: T1, BCR::ABL1 (Ba/F3 isogenic cells); experiment: Ba/F3 MTS viability assay; type: cell-based; conditions: growth of BCR::ABL1-dependent Ba/F3 cells; parental Ba/F3 + IL-3 as control
T1 construct: BCR::ABL1 fusion oncoprotein, one polypeptide (BCR N-terminal, ABL1 C-terminal); expressed in murine Ba/F3 cells by electroporation; with Breakpoint cluster region protein

[2] = system: T1, BCR::ABL1 (Ba/F3 isogenic cells); experiment: Ba/F3 MTS viability assay; type: cell-based; conditions: growth of BCR::ABL1-dependent Ba/F3 cells; stated gain

In the case of `Cc1ccc(-n2nc(C(C)(C)C)cc2NC(=O)NCc2cc(F)ccc2Oc2ccc3c(cnn3CCO)c2)cc1` [pexmetinib], the IC50 [1] is reported as 411 nM and the IC50 [2] is reported as 2099 nM.
